According to ChEMBL document CHEMBL5370608, “Selective and Bioavailable HDAC6 2-(Difluoromethyl)-1,3,4-oxadiazole Substrate Inhibitors and Modeling of Their Bioactivation Mechanism” (J Med Chem, 2023):

Legend:
[1] = molecular target: T1, Histone deacetylase 8 (Homo sapiens, UniProt Q9BY41); test: Inhibition of human recombinant HDAC8 incubated for 60 mins by fluorimetry analysis
T1 sequence (Q9BY41 whole entry): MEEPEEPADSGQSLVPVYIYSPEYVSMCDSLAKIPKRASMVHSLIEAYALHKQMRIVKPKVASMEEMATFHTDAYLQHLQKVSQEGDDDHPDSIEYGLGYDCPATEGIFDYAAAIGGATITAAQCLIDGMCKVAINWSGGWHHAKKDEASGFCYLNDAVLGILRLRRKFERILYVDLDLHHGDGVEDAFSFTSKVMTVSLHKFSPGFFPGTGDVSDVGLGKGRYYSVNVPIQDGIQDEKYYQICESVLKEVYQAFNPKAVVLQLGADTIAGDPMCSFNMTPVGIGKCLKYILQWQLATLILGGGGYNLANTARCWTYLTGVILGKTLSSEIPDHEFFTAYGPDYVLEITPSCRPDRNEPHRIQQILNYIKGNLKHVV

[2] = molecular target: Histone deacetylase 4 (Homo sapiens, UniProt P56524); test: Inhibition of human recombinant HDAC4 incubated for 30 mins by fluorimetry analysis
[3] = molecular target: T2, Protein deacetylase HDAC6 (Homo sapiens, UniProt Q9UBN7); test: Inhibition of human recombinant HDAC6 incubated for 30 mins by fluorimetry analysis
T2 sequence (Q9UBN7 whole entry): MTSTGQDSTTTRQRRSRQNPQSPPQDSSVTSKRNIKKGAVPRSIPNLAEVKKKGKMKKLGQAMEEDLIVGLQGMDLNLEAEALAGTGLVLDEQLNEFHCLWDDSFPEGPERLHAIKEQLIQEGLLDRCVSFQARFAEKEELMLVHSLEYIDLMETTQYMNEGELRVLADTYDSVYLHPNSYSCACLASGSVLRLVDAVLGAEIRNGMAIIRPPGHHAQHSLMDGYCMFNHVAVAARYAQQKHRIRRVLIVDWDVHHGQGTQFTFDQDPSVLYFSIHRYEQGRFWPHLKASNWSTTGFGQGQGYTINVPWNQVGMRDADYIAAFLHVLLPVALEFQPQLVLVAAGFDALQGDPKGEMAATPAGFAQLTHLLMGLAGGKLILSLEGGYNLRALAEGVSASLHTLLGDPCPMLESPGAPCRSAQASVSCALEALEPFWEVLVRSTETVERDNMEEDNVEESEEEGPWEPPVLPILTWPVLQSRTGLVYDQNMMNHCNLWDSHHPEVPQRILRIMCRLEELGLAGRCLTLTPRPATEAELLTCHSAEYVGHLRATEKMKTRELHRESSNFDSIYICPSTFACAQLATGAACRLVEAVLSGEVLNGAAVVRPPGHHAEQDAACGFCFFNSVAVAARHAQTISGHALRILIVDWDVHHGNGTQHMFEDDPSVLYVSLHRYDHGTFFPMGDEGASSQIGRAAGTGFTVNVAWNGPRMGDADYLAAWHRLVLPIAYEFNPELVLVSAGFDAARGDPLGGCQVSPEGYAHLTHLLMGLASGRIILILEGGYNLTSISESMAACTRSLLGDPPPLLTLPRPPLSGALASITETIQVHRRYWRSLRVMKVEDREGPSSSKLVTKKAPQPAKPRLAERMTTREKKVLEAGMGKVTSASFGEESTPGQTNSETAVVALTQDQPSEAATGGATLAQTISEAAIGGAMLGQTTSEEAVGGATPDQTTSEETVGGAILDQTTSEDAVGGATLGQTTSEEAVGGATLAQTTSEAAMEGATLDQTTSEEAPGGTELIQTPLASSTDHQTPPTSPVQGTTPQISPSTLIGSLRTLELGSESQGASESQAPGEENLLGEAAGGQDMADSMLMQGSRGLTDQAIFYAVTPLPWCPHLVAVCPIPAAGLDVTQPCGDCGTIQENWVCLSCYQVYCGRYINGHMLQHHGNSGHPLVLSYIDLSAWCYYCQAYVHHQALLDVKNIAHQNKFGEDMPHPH

[4] = molecular target: T2, Protein deacetylase HDAC6; test: Inhibition of HDAC6 in human BEAS-2B cells assessed as deacetylation of acetylated alpha-tubulin level incubated for 24 hrs by Western blot analysis; type: cell-based
[5] = molecular target: T3, Histone deacetylase 7 (Homo sapiens, UniProt Q8WUI4); test: Inhibition of human recombinant HDAC7 incubated for 30 mins by fluorimetry analysis
T3 sequence (Q8WUI4 whole entry): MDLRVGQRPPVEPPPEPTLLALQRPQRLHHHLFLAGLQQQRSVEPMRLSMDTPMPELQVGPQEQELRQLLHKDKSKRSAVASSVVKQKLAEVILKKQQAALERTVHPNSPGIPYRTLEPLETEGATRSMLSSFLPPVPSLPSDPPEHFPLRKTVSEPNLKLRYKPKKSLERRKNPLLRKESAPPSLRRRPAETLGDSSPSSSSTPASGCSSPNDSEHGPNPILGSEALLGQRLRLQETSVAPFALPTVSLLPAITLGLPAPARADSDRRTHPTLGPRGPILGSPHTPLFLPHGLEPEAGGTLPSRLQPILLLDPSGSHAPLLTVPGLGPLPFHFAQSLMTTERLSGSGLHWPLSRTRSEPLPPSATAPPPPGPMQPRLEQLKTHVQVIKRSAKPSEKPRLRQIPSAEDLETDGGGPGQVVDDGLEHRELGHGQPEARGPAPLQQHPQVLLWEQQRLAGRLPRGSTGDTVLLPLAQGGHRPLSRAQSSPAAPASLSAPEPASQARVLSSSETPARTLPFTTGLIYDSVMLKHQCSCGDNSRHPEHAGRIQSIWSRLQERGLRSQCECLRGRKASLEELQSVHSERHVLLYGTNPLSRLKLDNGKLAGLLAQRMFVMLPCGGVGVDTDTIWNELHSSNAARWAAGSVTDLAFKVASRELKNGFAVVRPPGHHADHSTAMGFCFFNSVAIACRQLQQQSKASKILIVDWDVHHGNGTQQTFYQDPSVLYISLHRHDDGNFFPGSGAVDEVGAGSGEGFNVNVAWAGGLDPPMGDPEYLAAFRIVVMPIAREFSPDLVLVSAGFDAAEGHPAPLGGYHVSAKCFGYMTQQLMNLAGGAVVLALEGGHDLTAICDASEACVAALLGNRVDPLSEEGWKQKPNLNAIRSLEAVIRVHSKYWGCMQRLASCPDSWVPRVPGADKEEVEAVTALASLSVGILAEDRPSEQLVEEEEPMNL

[6] = molecular target: T4, Histone deacetylase 11 (Homo sapiens, UniProt Q96DB2); test: Inhibition of human recombinant HDAC11 incubated for 30 mins by fluorimetry analysis
T4 sequence (Q96DB2 whole entry): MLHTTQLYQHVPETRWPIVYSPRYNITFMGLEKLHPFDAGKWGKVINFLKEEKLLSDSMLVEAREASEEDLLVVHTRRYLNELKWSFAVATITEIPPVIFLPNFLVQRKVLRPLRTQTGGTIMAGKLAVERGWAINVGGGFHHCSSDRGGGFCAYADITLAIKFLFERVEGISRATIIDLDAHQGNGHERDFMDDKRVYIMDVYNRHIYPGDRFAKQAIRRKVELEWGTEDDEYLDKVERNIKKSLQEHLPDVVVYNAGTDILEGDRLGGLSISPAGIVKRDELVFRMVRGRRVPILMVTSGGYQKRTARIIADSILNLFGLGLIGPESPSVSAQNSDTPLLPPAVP

Chain of Histone deacetylase 4 (P56524 whole entry): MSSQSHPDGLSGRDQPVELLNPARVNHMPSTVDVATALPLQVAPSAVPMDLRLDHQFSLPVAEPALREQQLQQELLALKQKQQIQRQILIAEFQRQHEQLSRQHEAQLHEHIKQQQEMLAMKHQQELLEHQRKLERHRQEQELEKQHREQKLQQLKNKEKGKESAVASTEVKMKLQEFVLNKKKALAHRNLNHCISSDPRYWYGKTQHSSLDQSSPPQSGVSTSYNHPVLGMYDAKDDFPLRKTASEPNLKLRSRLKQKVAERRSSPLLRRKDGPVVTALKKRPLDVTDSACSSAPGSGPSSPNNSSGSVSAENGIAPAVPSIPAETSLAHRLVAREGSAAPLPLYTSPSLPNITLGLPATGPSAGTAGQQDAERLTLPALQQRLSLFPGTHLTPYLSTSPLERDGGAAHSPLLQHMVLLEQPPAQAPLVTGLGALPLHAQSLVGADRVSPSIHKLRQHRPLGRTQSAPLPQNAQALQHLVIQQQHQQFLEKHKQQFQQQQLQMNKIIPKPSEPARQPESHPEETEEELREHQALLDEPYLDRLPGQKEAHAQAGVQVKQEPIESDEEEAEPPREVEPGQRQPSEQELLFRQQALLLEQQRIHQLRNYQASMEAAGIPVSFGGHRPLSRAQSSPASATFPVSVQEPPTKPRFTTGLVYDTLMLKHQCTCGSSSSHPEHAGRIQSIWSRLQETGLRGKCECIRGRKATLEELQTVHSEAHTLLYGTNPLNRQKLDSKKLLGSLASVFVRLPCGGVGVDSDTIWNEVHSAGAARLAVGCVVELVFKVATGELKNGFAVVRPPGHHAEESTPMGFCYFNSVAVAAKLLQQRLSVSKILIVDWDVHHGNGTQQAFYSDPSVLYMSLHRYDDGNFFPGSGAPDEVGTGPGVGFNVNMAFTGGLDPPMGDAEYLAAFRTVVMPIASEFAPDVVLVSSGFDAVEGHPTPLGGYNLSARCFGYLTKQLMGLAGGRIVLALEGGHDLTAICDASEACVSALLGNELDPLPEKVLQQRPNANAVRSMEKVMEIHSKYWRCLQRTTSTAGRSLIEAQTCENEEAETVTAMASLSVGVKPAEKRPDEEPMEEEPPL

IC50 [1] [µM] | IC50 [2] [µM] | IC50 [3] [µM] | EC50 [4] [µM] | IC50 [5] [µM] | IC50 [6] [µM] | SMILES
> 100 | > 100 | 0.19 | 0.251 | > 100 | > 100 | FC(F)c1nnc(-c2ccc(Cn3nnc(-c4ccccn4)n3)nc2)o1
16 | 12 | < 0.01 | 0.0794 | 6.5 | 13 | O=C(NO)c1cnc(NC2(c3ccccc3)CCC(F)(F)CC2)nc1
> 100 | > 100 | 0.17 | 0.316 | > 100 | > 100 | COc1ccccc1-c1nnn(Cc2ccc(-c3nnc(C(F)F)o3)cn2)n1
> 100 | 14 | 0.58 | 0.0631 | 30 | > 100 | CS(=O)(=O)NCC(Nc1ncc(-c2nnc(C(F)F)o2)cn1)c1ccc(OC(F)(F)F)cc1 (centres undefined)
